This is an account of results in ChEMBL document CHEMBL1126229, “Enol lactone derivatives as inhibitors of human neutrophil elastase and trypsin-like proteases” (Bioorg Med Chem Lett, 1992).

Assay [1] concerns the target T1, Neutrophil elastase (Homo sapiens) (UniProt P08246).
T1 sequence (whole entry): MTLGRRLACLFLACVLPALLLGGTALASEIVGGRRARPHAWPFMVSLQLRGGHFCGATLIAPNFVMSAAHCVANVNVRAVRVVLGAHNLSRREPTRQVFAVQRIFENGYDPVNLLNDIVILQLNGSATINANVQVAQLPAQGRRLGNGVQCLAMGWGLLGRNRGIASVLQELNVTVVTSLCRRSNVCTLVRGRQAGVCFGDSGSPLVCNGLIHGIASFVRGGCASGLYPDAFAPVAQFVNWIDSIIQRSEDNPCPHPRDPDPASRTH
Nature of the assay: Specificity constant on human neutrophil elastase was determined at 90 percent and at 93 minutes for maximum inhibition and no enzyme activity was recovered over the 2 h-time.

Assay [2] addresses T1, Neutrophil elastase (Homo sapiens). Nature of the assay: Rate constant of acylation on human neutrophil elastase was determined at 90 percent and at 93 minutes for maximum inhibition and no enzyme activity was recovered over the 2 h-time.
Assay [3] shares this target. Nature of the assay: Binding constant on human neutrophil elastase was determined at 90 percent and at 93 minutes for maximum inhibition and no enzyme activity was recovered over the 2 h-time.
In assay [4] the target is T2, Chymotrypsin-like elastase family member 2A (Sus scrofa) (UniProt P08419).
T2 sequence (whole entry): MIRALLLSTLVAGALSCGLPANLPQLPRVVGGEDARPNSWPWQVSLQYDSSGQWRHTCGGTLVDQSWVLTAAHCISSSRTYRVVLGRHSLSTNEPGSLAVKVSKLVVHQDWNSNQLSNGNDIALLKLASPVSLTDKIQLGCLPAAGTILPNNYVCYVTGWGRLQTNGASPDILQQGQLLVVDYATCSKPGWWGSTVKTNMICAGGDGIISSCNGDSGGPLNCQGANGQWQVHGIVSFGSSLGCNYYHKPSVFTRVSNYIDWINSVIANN
Nature of the assay: Rate constant of acylation on porcine pancreatic elastase was determined at 30 percent and at 99 minutes for maximum inhibition and no enzyme activity was recovered over the 2 h-time.

For assay [5], the target named is T2, Chymotrypsin-like elastase family member 2A (Sus scrofa). Nature of the assay: Specificity constant on porcine pancreatic elastase was determined at 30 percent and at 99 minutes for maximum inhibition and no enzyme activity was recovered over the 2 h-time.
The target in assay [6] is T3, Serine protease 1 (Homo sapiens, UniProt P07477). Description: Binding constant on trypsin was determined at 10 percent and at 95 minutes for maximum inhibition and no enzyme activity was recovered over the 2 h-time.
Assay [7] addresses T3, Serine protease 1. Description: Rate constant of acylation on trypsin was determined at 10 percent and at 95 minutes for maximum inhibition and no enzyme activity was recovered over the 2 h-time.
Assay [8] deals with Chymotrypsinogen A (Bos taurus) (UniProt P00766). Nature of the assay: Specificity constant on alpha-chymotrypsin was determined at 10 percent and at 99 minutes for maximum inhibition and no enzyme activity was recovered over the 2 h-time.
Assay [9] concerns the target T3, Serine protease 1. Nature of the assay: Specificity constant on trypsin was determined at 10 percent and at 95 minutes for maximum inhibition and no enzyme activity was recovered over the 2 h-time.
Assay [10] concerns the target Chymotrypsinogen A (Bos taurus) (UniProt P00766). Description: Binding constant on alpha-chymotrypsin was determined at 10 percent and at 99 minutes for maximum inhibition and no enzyme activity was recovered over the 2 h-time.
Assay [11] has the same target. Description: Rate constant of acylation on alpha-chymotrypsin was determined at 10 percent and at 99 minutes for maximum inhibition and no enzyme activity was recovered over the 2 h-time.
The target of assay [12] is T2, Chymotrypsin-like elastase family member 2A (Sus scrofa). Nature of the assay: Binding constant on porcine pancreatic elastase was determined at 30 percent and at 99 minutes for maximum inhibition and no enzyme activity was recovered over the 2 h-time.
Assay [13] addresses T1, Neutrophil elastase (Homo sapiens). Nature of the assay: Specificity constant on human neutrophil elastase was determined at 30 percent and at 35 minutes for maximum inhibition with 0 minutes persistence of inhibition.
The target is the same in assay [14]. Nature of the assay: Rate constant of acylation on human neutrophil elastase was determined at 30 percent and at 35 minutes for maximum inhibition with 0 minutes persistence of inhibition.
Assay [15] shares this target. Nature of the assay: Binding constant on human neutrophil elastase was determined at 30 percent and at 35 minutes for maximum inhibition with 0 minutes persistence of inhibition.
Assay [16] deals with T2, Chymotrypsin-like elastase family member 2A (Sus scrofa). Description: Specificity constant on porcine pancreatic elastase was determined at 10 percent and at 78 minutes for maximum inhibition and no enzyme activity was recovered over the 2 h-time.
Assay [17] has the same target. Nature of the assay: Binding constant on porcine pancreatic elastase was determined at 10 percent and at 78 minutes for maximum inhibition and no enzyme activity was recovered over the 2 h-time.
For assay [18] the target is unchanged. Nature of the assay: Rate constant of acylation on porcine pancreatic elastase was determined at 10 percent and at 78 minutes for maximum inhibition and no enzyme activity was recovered over the 2 h-time.
In assay [19] the target is T1, Neutrophil elastase (Homo sapiens). Description: Specificity constant on human neutrophil elastase was determined at 48 percent and at 60 minutes for maximum inhibition and with 0 minutes persistence of inhibition.
Assay [20] shares this target. Description: Rate constant of acylation on human neutrophil elastase was determined at 48 percent and at 60 minutes for maximum inhibition with 0 minutes persistence of inhibition.
For assay [21] the target is unchanged. Nature of the assay: Binding constant on human neutrophil elastase was determined at 48 percent and at 60 minutes for maximum inhibition with 0 minutes persistence of inhibition.
Assay [22] concerns the target T2, Chymotrypsin-like elastase family member 2A (Sus scrofa). Nature of the assay: Rate constant of acylation on porcine pancreatic elastase was determined at 42 percent and at 55 minutes for maximum inhibition and no enzyme activity was recovered over the 2 h-time.
Assay [23] shares this target. Description: Specificity constant on porcine pancreatic elastase was determined at 42 percent and at 55 minutes for maximum inhibition and no enzyme activity was recovered over the 2 h-time.
Assay [24] shares this target. Nature of the assay: Binding constant on porcine pancreatic elastase was determined at 42 percent and at 55 minutes for maximum inhibition and no enzyme activity was recovered over the 2 h-time.
The target of assay [25] is T4, Plasminogen (Homo sapiens, UniProt P00747). Nature of the assay: Rate constant of deacylation for plasmin; Fast and could not be measured.
In assay [26] the target is T5, Prothrombin (Homo sapiens, UniProt P00734). Nature of the assay: Rate constant of deacylation for thrombin.
Assay [27] deals with T6, Urokinase-type plasminogen activator (Homo sapiens, UniProt P00749). Description: Rate constant of deacylation for Urokinase-type plasminogen activator.
Assay [28] has as its target T4, Plasminogen.
In assay [29] the target is T4, Plasminogen. The source holds these as a separate data set.
Assay [30] concerns the target T4, Plasminogen. This is another data set of the same source.
Description: Binding constant on plasmin was determined at 30 percent and at 82 minutes for maximum inhibition and no enzyme activity was recovered over the 2 h-time
The target in assay [31] is T6, Urokinase-type plasminogen activator.
Assay [32] addresses T5, Prothrombin.
Assay [33] concerns the target T5, Prothrombin. The source holds these as a separate data set.
The target in assay [34] is T5, Prothrombin. The source holds these as a separate data set.
Assay [35] has as its target T6, Urokinase-type plasminogen activator. This is another data set of the same source.
The target is the same in assay [36]. The source holds these as a separate data set.
Description: Specificity constant on Urokinase-type plasminogen activator was determined at 0 percent and at 91 minutes for maximum inhibition and no enzyme activity was recovered over the 2 h-time
Assay [37] has as its target T1, Neutrophil elastase (Homo sapiens). Nature of the assay: Specificity constant on human neutrophil elastase was determined at 20 percent and at 99 minutes for maximum inhibition and no enzyme activity was recovered over the 2 h-time.
The target is the same in assay [38]. Nature of the assay: Rate constant of acylation on human neutrophil elastase was determined at 20 percent and at 99 minutes for maximum inhibition and no enzyme activity was recovered over the 2 h-time.
The target is the same in assay [39]. Description: Binding constant on human neutrophil elastase was determined at 20 percent and at 99 minutes for maximum inhibition and no enzyme activity was recovered over the 2 h-time.
In assay [40] the target is T3, Serine protease 1. Description: Binding constant on trypsin was determined.
Assay [41] addresses T3, Serine protease 1. Description: Rate constant of acylation on trypsin was determined.
Assay [42] addresses T3, Serine protease 1. Description: Specificity constant on trypsin was determined.
For assay [43], the target named is Chymotrypsinogen A (Bos taurus) (UniProt P00766). Nature of the assay: Binding constant on alpha-chymotrypsin was determined.
The target is the same in assay [44]. Description: Rate constant of acylation on alpha-chymotrypsin was determined.
Assay [45] has the same target. Description: Specificity constant on alpha-chymotrypsin was determined.

T3 sequence (P07477 whole entry): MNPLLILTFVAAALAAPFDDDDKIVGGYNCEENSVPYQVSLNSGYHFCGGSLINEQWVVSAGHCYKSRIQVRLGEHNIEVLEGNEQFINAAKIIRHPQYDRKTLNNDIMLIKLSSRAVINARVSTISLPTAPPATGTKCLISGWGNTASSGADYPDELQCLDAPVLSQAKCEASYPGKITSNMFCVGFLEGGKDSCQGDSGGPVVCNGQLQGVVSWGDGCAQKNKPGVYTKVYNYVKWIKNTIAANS
T4 sequence (P00747 97-580 limits assumed): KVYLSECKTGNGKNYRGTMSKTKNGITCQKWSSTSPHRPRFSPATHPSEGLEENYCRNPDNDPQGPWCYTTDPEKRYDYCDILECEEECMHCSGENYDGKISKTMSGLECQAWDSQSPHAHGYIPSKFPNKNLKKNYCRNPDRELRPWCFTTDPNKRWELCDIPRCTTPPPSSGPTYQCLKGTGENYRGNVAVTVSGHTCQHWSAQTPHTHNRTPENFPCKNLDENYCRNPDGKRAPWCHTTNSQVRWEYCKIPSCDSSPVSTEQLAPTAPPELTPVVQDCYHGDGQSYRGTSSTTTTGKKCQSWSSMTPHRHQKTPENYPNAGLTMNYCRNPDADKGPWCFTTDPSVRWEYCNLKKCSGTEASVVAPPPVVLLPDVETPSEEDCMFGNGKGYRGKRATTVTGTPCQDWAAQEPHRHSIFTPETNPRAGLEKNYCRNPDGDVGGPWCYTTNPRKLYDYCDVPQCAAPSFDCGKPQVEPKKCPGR
T4 sequence (P00747 581-810 limits assumed): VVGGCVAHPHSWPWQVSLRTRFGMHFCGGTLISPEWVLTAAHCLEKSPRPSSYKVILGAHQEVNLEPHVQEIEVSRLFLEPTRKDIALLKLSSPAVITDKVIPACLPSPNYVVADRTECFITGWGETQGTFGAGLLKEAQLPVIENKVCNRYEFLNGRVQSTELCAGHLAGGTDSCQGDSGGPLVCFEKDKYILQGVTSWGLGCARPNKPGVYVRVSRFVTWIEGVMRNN

With `CC(C)C1CC/C(=C\Br)OC1=O` (stereo not drawn), the ka/Ki in assay [1] was determined as 14500 M⁻¹ s⁻¹; in assay [5], 333 M⁻¹ s⁻¹; in [8], 10000 M⁻¹ s⁻¹; on Serine protease 1 [9], 667 M⁻¹ s⁻¹. The ka in assay [2] was determined as 0.67 min⁻¹; in [4], 0.52 min⁻¹; on Serine protease 1 [7] it was 1.8 min⁻¹; in assay [11] it was 6 min⁻¹. Also, the Ks/i in [3] is 0.77 µM; on Serine protease 1 [6], 44 µM; in assay [10] it was 9.8 µM; in assay [12], 26.9 µM.

Take `CC1CC(=O)O/C(=C/Br)C1` (stereo not drawn): the ka/Ki in assay [13] was 333 M⁻¹ s⁻¹; in assay [16] it was 16.7 M⁻¹ s⁻¹. The figures for the ka in assay [14] and in assay [18] were 0.48 min⁻¹ and 0.33 min⁻¹, respectively. The Ks/i in assay [15] amounted to 22.6 µM; in [17], 216 µM.

For `C=C1CC(C)(C)CC(=O)O1`, the results for the ka/Ki in [19] and in [23] were 333 M⁻¹ s⁻¹ and 83.3 M⁻¹ s⁻¹, respectively. Further, the figures for the ka in assay [20] and in assay [22] were 0.77 min⁻¹ and 0.51 min⁻¹, respectively. In addition, the Ks/i in assay [21] was 43.3 µM; in assay [24], 104 µM.

Turning to `C=C1CCC(c2ccc(CNC(=N)N)cc2)C(=O)O1` (stereo not drawn), the Kd result was “Not measurable” on Plasminogen [25], 0.0001 s⁻¹ at Prothrombin [26] and 0.000733 s⁻¹ in assay [27]. For the same compound, the ka/Ki on Plasminogen [28] came out at 2000 M⁻¹ s⁻¹; at Prothrombin [34] it was 2500 M⁻¹ s⁻¹; in [36], 467000 M⁻¹ s⁻¹. Also, the ka on Plasminogen [29] came to 57 min⁻¹; at Prothrombin [33], 5.58 min⁻¹; in assay [35], 9.8 min⁻¹. Further, the Ks/i at Plasminogen [30] worked out at 466 µM; in assay [31] it was 0.35 µM; on Prothrombin [32] it was 37.9 µM.

In the case of `CC(C)C1CC/C(=C/Br)OC1=O` (stereo not drawn), the ka/Ki in assay [37] was found to be 37500 M⁻¹ s⁻¹; in assay [5], 83.3 M⁻¹ s⁻¹; at Serine protease 1 [42] it was 667 M⁻¹ s⁻¹; in assay [45], 11700 M⁻¹ s⁻¹. Moreover, the ka was found to be 0.18 min⁻¹ in assay [38], 0.28 min⁻¹ in [4], 2.4 min⁻¹ at Serine protease 1 [41] and 1.6 min⁻¹ in assay [44]. For the same compound, the Ks/i in assay [39] came out at 0.08 µM; on Serine protease 1 [40], 65 µM; in [43], 2.3 µM; in assay [12], 58.8 µM.
